The NIST ThermoML archive (doi:10.1016/j.jct.2015.11.023)

Columns and labels:
[1] = wn = mass fraction of the nth substance listed; conditions: for surface tension liquid-gas: Maximal bubble pressure; for mass density: 100 kPa, Liquid, Vibrating tube method
[2] = refractive index (Na D-line) (dimensionless); wn = mass fraction of the nth substance listed; conditions: 100 kPa, Liquid, Standard Abbe refractometry

CCC[n+]1ccccc1.N#C[N-]C#N [1-propylpyridinium dicyanamide] + O
Conditions | mass density [kg/m3] | refractive index | surface tension liquid-gas [mN/m]
[1], 303.15 K, w2 = 0.00121 | 1086.72 | – | –
[1], 303.15 K, w2 = 0.00205 | – | – | 58.1
[1], 303.15 K, w2 = 0.00271 | 1086.48 | – | –
[1], 303.15 K, w2 = 0.0035 | – | – | 58.4
[1], 303.15 K, w2 = 0.00412 | 1086.25 | – | –
[1], 303.15 K, w2 = 0.005 | – | – | 58.7
[1], 303.15 K, w2 = 0.00573 | 1085.98 | – | –
[1], 303.15 K, w2 = 0.00649 | – | – | 59
[1], 303.15 K, w2 = 0.00724 | 1085.74 | – | –
[1], 303.15 K, w2 = 0.00802 | – | – | 59.3
[1], 308.15 K, w2 = 0.00121 | 1083.57 | – | –
[1], 308.15 K, w2 = 0.00205 | – | – | 57.8
[1], 308.15 K, w2 = 0.00271 | 1083.3 | – | –
[1], 308.15 K, w2 = 0.0035 | – | – | 58.1
[1], 308.15 K, w2 = 0.00412 | 1083.06 | – | –
[1], 308.15 K, w2 = 0.005 | – | – | 58.4
[1], 308.15 K, w2 = 0.00573 | 1082.77 | – | –
[1], 308.15 K, w2 = 0.00649 | – | – | 58.7
[1], 308.15 K, w2 = 0.00724 | 1082.49 | – | –
[1], 308.15 K, w2 = 0.00802 | – | – | 59
[1], 313.15 K, w2 = 0.00121 | 1080.46 | – | –
[1], 313.15 K, w2 = 0.00205 | – | – | 57.4
[1], 313.15 K, w2 = 0.00271 | 1080.2 | – | –
[1], 313.15 K, w2 = 0.0035 | – | – | 57.8
[1], 313.15 K, w2 = 0.00412 | 1079.95 | – | –
[1], 313.15 K, w2 = 0.005 | – | – | 58.1
[1], 313.15 K, w2 = 0.00573 | 1079.65 | – | –
[1], 313.15 K, w2 = 0.00649 | – | – | 58.4
[1], 313.15 K, w2 = 0.00724 | 1079.36 | – | –
[1], 313.15 K, w2 = 0.00802 | – | – | 58.7
[1], 318.15 K, w2 = 0.00121 | 1077.36 | – | –
[1], 318.15 K, w2 = 0.00205 | – | – | 57.1
[1], 318.15 K, w2 = 0.00271 | 1077.12 | – | –
[1], 318.15 K, w2 = 0.0035 | – | – | 57.5
[1], 318.15 K, w2 = 0.00412 | 1076.87 | – | –
[1], 318.15 K, w2 = 0.005 | – | – | 57.8
[1], 318.15 K, w2 = 0.00573 | 1076.55 | – | –
[1], 318.15 K, w2 = 0.00649 | – | – | 58.1
[1], 318.15 K, w2 = 0.00724 | 1076.27 | – | –
[1], 318.15 K, w2 = 0.00802 | – | – | 58.4
[1], 323.15 K, w2 = 0.00121 | 1074.29 | – | –
[1], 323.15 K, w2 = 0.00205 | – | – | 56.9
[1], 323.15 K, w2 = 0.00271 | 1074.02 | – | –
[1], 323.15 K, w2 = 0.0035 | – | – | 57.2
[1], 323.15 K, w2 = 0.00412 | 1073.79 | – | –
[1], 323.15 K, w2 = 0.005 | – | – | 57.5
[1], 323.15 K, w2 = 0.00573 | 1073.46 | – | –
[1], 323.15 K, w2 = 0.00649 | – | – | 57.8
[1], 323.15 K, w2 = 0.00724 | 1073.19 | – | –
[1], 323.15 K, w2 = 0.00802 | – | – | 58.2
[1], 328.15 K, w2 = 0.00121 | 1071.24 | – | –
[1], 328.15 K, w2 = 0.00205 | – | – | 56.5
[1], 328.15 K, w2 = 0.00271 | 1070.97 | – | –
[1], 328.15 K, w2 = 0.0035 | – | – | 56.8
[1], 328.15 K, w2 = 0.00412 | 1070.72 | – | –
[1], 328.15 K, w2 = 0.005 | – | – | 57.2
[1], 328.15 K, w2 = 0.00573 | 1070.41 | – | –
[1], 328.15 K, w2 = 0.00649 | – | – | 57.5
[1], 328.15 K, w2 = 0.00724 | 1070.15 | – | –
[1], 328.15 K, w2 = 0.00802 | – | – | 57.8
[1], 333.15 K, w2 = 0.00121 | 1068.17 | – | –
[1], 333.15 K, w2 = 0.00205 | – | – | 56.2
[1], 333.15 K, w2 = 0.00271 | 1067.92 | – | –
[1], 333.15 K, w2 = 0.0035 | – | – | 56.5
[1], 333.15 K, w2 = 0.00412 | 1067.67 | – | –
[1], 333.15 K, w2 = 0.005 | – | – | 56.9
[1], 333.15 K, w2 = 0.00573 | 1067.34 | – | –
[1], 333.15 K, w2 = 0.00649 | – | – | 57.2
[1], 333.15 K, w2 = 0.00724 | 1067.04 | – | –
[1], 333.15 K, w2 = 0.00802 | – | – | 57.6
[1], 338.15 K, w2 = 0.00121 | 1065.15 | – | –
[1], 338.15 K, w2 = 0.00205 | – | – | 55.8
[1], 338.15 K, w2 = 0.00271 | 1064.88 | – | –
[1], 338.15 K, w2 = 0.0035 | – | – | 56.1
[1], 338.15 K, w2 = 0.00412 | 1064.64 | – | –
[1], 338.15 K, w2 = 0.005 | – | – | 56.5
[1], 338.15 K, w2 = 0.00573 | 1064.3 | – | –
[1], 338.15 K, w2 = 0.00649 | – | – | 56.8
[1], 338.15 K, w2 = 0.00724 | 1063.99 | – | –
[1], 338.15 K, w2 = 0.00802 | – | – | 57.1
[2], 303.15 K, w2 = 0.00205 | – | 1.5386 | –
[2], 303.15 K, w2 = 0.00353 | – | 1.5384 | –
[2], 303.15 K, w2 = 0.00496 | – | 1.5381 | –
[2], 303.15 K, w2 = 0.00639 | – | 1.5378 | –
[2], 303.15 K, w2 = 0.0079 | – | 1.5375 | –
[2], 308.15 K, w2 = 0.00205 | – | 1.537 | –
[2], 308.15 K, w2 = 0.00353 | – | 1.5368 | –
[2], 308.15 K, w2 = 0.00496 | – | 1.5365 | –
[2], 308.15 K, w2 = 0.00639 | – | 1.5362 | –
[2], 308.15 K, w2 = 0.0079 | – | 1.5359 | –
[2], 313.15 K, w2 = 0.00205 | – | 1.5352 | –
[2], 313.15 K, w2 = 0.00353 | – | 1.5349 | –
[2], 313.15 K, w2 = 0.00496 | – | 1.5347 | –
[2], 313.15 K, w2 = 0.00639 | – | 1.5344 | –
[2], 313.15 K, w2 = 0.0079 | – | 1.5341 | –
[2], 318.15 K, w2 = 0.00205 | – | 1.5338 | –
[2], 318.15 K, w2 = 0.00353 | – | 1.5335 | –
[2], 318.15 K, w2 = 0.00496 | – | 1.5332 | –
[2], 318.15 K, w2 = 0.00639 | – | 1.5329 | –
[2], 318.15 K, w2 = 0.0079 | – | 1.5327 | –
[2], 323.15 K, w2 = 0.00205 | – | 1.5325 | –
[2], 323.15 K, w2 = 0.00353 | – | 1.5322 | –
[2], 323.15 K, w2 = 0.00496 | – | 1.5319 | –
[2], 323.15 K, w2 = 0.00639 | – | 1.5316 | –
[2], 323.15 K, w2 = 0.0079 | – | 1.5313 | –
[2], 328.15 K, w2 = 0.00205 | – | 1.5308 | –
[2], 328.15 K, w2 = 0.00353 | – | 1.5306 | –
[2], 328.15 K, w2 = 0.00496 | – | 1.5303 | –
[2], 328.15 K, w2 = 0.00639 | – | 1.5301 | –
[2], 328.15 K, w2 = 0.0079 | – | 1.5298 | –
[2], 333.15 K, w2 = 0.00205 | – | 1.529 | –
[2], 333.15 K, w2 = 0.00353 | – | 1.5288 | –
[2], 333.15 K, w2 = 0.00496 | – | 1.5286 | –
[2], 333.15 K, w2 = 0.00639 | – | 1.5283 | –
[2], 333.15 K, w2 = 0.0079 | – | 1.5281 | –
[2], 338.15 K, w2 = 0.00205 | – | 1.5273 | –
[2], 338.15 K, w2 = 0.00353 | – | 1.527 | –
[2], 338.15 K, w2 = 0.00496 | – | 1.5268 | –
[2], 338.15 K, w2 = 0.00639 | – | 1.5265 | –
[2], 338.15 K, w2 = 0.0079 | – | 1.5263 | –
